According to US20240090503A1, “FUNGICIDAL OXADIAZOLES AND THEIR MIXTURES” (FMC CORPORATION, priority 2020, published 2024):

Legend:
[1] = tested on: Phakopsora pachyrhizi (the causal agent of Asian soybean rust); test: Test A: preventive spray on soybean seedlings, Asian soybean rust, visual disease rating; assay type: in vivo; conditions: soybean seedlings
Text: (§1) General protocol for preparing test suspensions for Tests A-D: the test compounds were first dissolved in acetone in an amount equal to 3% of the final volume and then suspended at the desired concentration (in ppm) in acetone and purified water (50/50 mix by volume) containing 250 ppm of the surfactant PEG400 (polyhydric alcohol esters). The resulting test suspensions were then used in Tests A-D.
The test suspension was sprayed to the point of run-off on soybean seedlings. The following day the seedlings were inoculated with a spore suspension of Phakopsora pachyrhizi (the causal agent of Asian soybean rust) and incubated in a saturated atmosphere at 22° C. for 24 h and then moved to a growth chamber at 22° C. for 8 days, after which time visual disease ratings were made.
(§2) The test results for Tests A-C presented in Table A below for compounds of Formula 1 illustrate the fungicidal activity of component (a) contributing to the plant disease control utility of compositions comprising component (a) in combination with component (b) according to the present invention. In the Table, a rating of 100 indicates 100% disease control and a rating of 0 indicates no disease control (relative to the controls). A dash (-) indicates the compound was not tested. The test suspensions were sprayed at the concentration listed in the column “Rate in ppm”, unless otherwise indicated. An asterisk “*” next to the rating indicates a 250 ppm test suspension was used, a double asterisk “**” next to the rating indicates a 100 ppm test suspension was used, and a triple asterisk “***” next to the rating indicates a 50 ppm test suspension was used.

[2] = tested on: Puccinia recondita f. sp. tritici (the causal agent of wheat leaf rust); test: Test C: preventive spray on wheat seedlings, wheat leaf rust, visual disease rating; assay type: in vivo; conditions: wheat seedlings
Text: as §1
The test suspension was sprayed to the point of run-off on wheat seedlings. The following day the seedlings were inoculated with a spore suspension of Puccinia recondita f. sp. tritici; (the causal agent of wheat leaf rust) and incubated in a saturated atmosphere at 20° C. for 24 h, and then moved to a growth chamber at 20° C. for 6 days, after which time visual disease ratings were made.
as §2

[3] = test suspension 10 ppm, 100 = 100% disease control, 0 = no control

Structure (SMILES): COC(=O)c1c2ccccc2nn1Cc1ccc(-c2noc(C(F)(F)F)n2)cc1 [compound 141]
- Test A disease control rating [1, 3]: 100%
- Test C disease control rating ([2]; test suspension 10 ppm): 88%

Structure (SMILES): CN(C)C(=O)c1nn(Cc2ccc(-c3noc(C(F)(F)F)n3)cc2)c2ccccc12 [compound 148]
- Test A disease control rating [1, 3]: 100%
- Test C disease control rating ([2]; test suspension 10 ppm): 96%

Structure (SMILES): N#CC1CCN(Cc2ccc(-c3noc(C(F)(F)F)n3)cc2)C1 (stereo not shown) [compound 151]
- Test A disease control rating ([1]; test suspension 50 ppm): 100%
- Test C disease control rating ([2]; test suspension 50 ppm): 98%

Structure (SMILES): FC(F)(F)c1nc(-c2ccc(Cn3ncc4cnc(Cl)nc43)cc2)no1 [compound 152]
- Test A disease control rating [1, 3]: 100%
- Test C disease control rating ([2]; test suspension 10 ppm): 100%

Structure (SMILES): CCOC(=O)c1cc(C(=O)OCC)n(Cc2ccc(-c3noc(C(F)(F)F)n3)cc2)n1 [compound 154]
- Test A disease control rating ([1]; test suspension 50 ppm): 100%
- Test C disease control rating ([2]; test suspension 50 ppm): 100%

Structure (SMILES): O=c1c2ccccc2sn1Cc1ccc(-c2noc(C(F)(F)F)n2)cc1 [compound 155]
- Test A disease control rating [1, 3]: 60%
- Test C disease control rating ([2]; test suspension 10 ppm): 0%

Structure (SMILES): O=c1ccc2ccccc2n1Cc1ccc(-c2noc(C(F)(F)F)n2)cc1 [compound 157]
- Test A disease control rating [1, 3]: 100%
- Test C disease control rating ([2]; test suspension 10 ppm): 100%

Structure (SMILES): FC(F)(F)c1nc(-c2ccc(CN3Cc4ccccc4C3)cc2)no1 [compound 160]
- Test A disease control rating [1, 3]: 99%
- Test C disease control rating ([2]; test suspension 10 ppm): 98%

Structure (SMILES): C=C(Br)COC(=O)c1cnn(Cc2ccc(-c3noc(C(F)(F)F)n3)cc2)c1 [compound 167]
- Test A disease control rating [1, 3]: 100%
- Test C disease control rating ([2]; test suspension 10 ppm): 100%

Structure (SMILES): C=CC(F)(F)OC(=O)c1cnn(Cc2ccc(-c3noc(C(F)(F)F)n3)cc2)c1 [compound 168]
- Test A disease control rating [1, 3]: 100%
- Test C disease control rating ([2]; test suspension 10 ppm): 100%

Structure (SMILES): CC(C)=CCOC(=O)c1cnn(Cc2ccc(-c3noc(C(F)(F)F)n3)cc2)c1 [compound 169]
- Test A disease control rating [1, 3]: 100%
- Test C disease control rating ([2]; test suspension 10 ppm): 99%

Structure (SMILES): COC(=O)C1(NC(=O)c2cnn(Cc3ccc(-c4noc(C(F)(F)F)n4)cc3)c2)CC1 [compound 172]
- Test A disease control rating [1, 3]: 100%
- Test C disease control rating ([2]; test suspension 10 ppm): 99%

Structure (SMILES): N#CC1(NC(=O)c2cnn(Cc3ccc(-c4noc(C(F)(F)F)n4)cc3)c2)CC1 [compound 173]
- Test A disease control rating [1, 3]: 100%
- Test C disease control rating ([2]; test suspension 10 ppm): 96%

Structure (SMILES): CCOC(=O)c1nn(Cc2ccc(-c3noc(C(F)(F)F)n3)cc2)c(C(=O)OCC)c1C(=O)OCC [compound 174]
- Test A disease control rating [1, 3]: 85%
- Test C disease control rating ([2]; test suspension 10 ppm): 91%

Structure (SMILES): Cc1cc(C(=O)O)nn1Cc1ccc(-c2noc(C(F)(F)F)n2)cc1 [compound 179]
- Test A disease control rating [1, 3]: 98%
- Test C disease control rating ([2]; test suspension 10 ppm): 9%

Structure (SMILES): Cc1cc(C(=O)OC(=O)C(F)(F)F)nn1Cc1ccc(-c2noc(C(F)(F)F)n2)cc1 [compound 180]
- Test A disease control rating [1, 3]: 97%
- Test C disease control rating ([2]; test suspension 10 ppm): 0%

Structure (SMILES): Cc1cc(C(=O)NCC#N)nn1Cc1ccc(-c2noc(C(F)(F)F)n2)cc1 [compound 181]
- Test A disease control rating [1, 3]: 100%
- Test C disease control rating ([2]; test suspension 10 ppm): 100%

Structure (SMILES): Cc1cc(C(=O)N(C)C)nn1Cc1ccc(-c2noc(C(F)(F)F)n2)cc1 [compound 182]
- Test A disease control rating [1, 3]: 100%
- Test C disease control rating ([2]; test suspension 10 ppm): 100%

Structure (SMILES): Cc1cc(C(=O)OCC#N)nn1Cc1ccc(-c2noc(C(F)(F)F)n2)cc1 [compound 184]
- Test A disease control rating [1, 3]: 100%
- Test C disease control rating ([2]; test suspension 10 ppm): 55%

Structure (SMILES): Cc1cc(C(=O)OCC#N)nn1Cc1ccc(-c2noc(C(F)(F)F)n2)cc1 [compound 185]
- Test A disease control rating [1, 3]: 100%
- Test C disease control rating ([2]; test suspension 10 ppm): 98%

Structure (SMILES): C=CCOC(=O)c1cc(C)n(Cc2ccc(-c3noc(C(F)(F)F)n3)cc2)n1 [compound 186]
- Test A disease control rating [1, 3]: 100%
- Test C disease control rating ([2]; test suspension 10 ppm): 74%

Structure (SMILES): CCOC(=O)c1cc(C(C)(C)C)n(Cc2ccc(-c3noc(C(F)(F)F)n3)cc2)n1 [compound 187]
- Test A disease control rating [1, 3]: 0%
- Test C disease control rating ([2]; test suspension 10 ppm): 0%

Structure (SMILES): N#Cc1cnn(Cc2ccc(-c3noc(C(F)(F)F)n3)s2)c1 [compound 189]
- Test A disease control rating ([1]; test suspension 50 ppm): 100%
- Test C disease control rating ([2]; test suspension 50 ppm): 100%

Structure (SMILES): C#CCOC(=O)c1cnn(Cc2ccc(-c3noc(C(F)(F)F)n3)s2)c1 [compound 190]
- Test A disease control rating [1, 3]: 100%
- Test C disease control rating ([2]; test suspension 10 ppm): 100%

Structure (SMILES): N#Cc1ccc2c(cnn2Cc2ccc(-c3noc(C(F)(F)F)n3)s2)c1 [compound 194]
- Test A disease control rating [1, 3]: 100%
- Test C disease control rating ([2]; test suspension 10 ppm): 100%

Structure (SMILES): COc1ccc2c(cnn2Cc2ccc(-c3noc(C(F)(F)F)n3)s2)c1 [compound 195]
- Test A disease control rating [1, 3]: 100%
- Test C disease control rating ([2]; test suspension 10 ppm): 98%

Structure (SMILES): FC(F)(F)c1nc(-c2ccc(Cn3ccc4ccccc43)s2)no1 [compound 196]
- Test A disease control rating [1, 3]: 100%
- Test C disease control rating ([2]; test suspension 10 ppm): 93%

Structure (SMILES): O=Cc1cnn(Cc2ccc(-c3noc(C(F)(F)F)n3)s2)c1 [compound 197]
- Test A disease control rating [1, 3]: 99%
- Test C disease control rating ([2]; test suspension 10 ppm): 98%

Structure (SMILES): C=CCOC(=O)c1cnn(Cc2ccc(-c3noc(C(F)(F)F)n3)s2)c1 [compound 199]
- Test A disease control rating [1, 3]: 100%
- Test C disease control rating ([2]; test suspension 10 ppm): 100%

Structure (SMILES): CC(C)OC(=O)c1cnn(Cc2ccc(-c3noc(C(F)(F)F)n3)s2)c1 [compound 200]
- Test A disease control rating [1, 3]: 100%
- Test C disease control rating ([2]; test suspension 10 ppm): 100%

Structure (SMILES): N#CC(C#N)NC(=O)c1coc(Cc2ccc(-c3noc(C(F)(F)F)n3)cc2)n1 [compound 203]
- Test A disease control rating [1, 3]: 100%
- Test C disease control rating ([2]; test suspension 10 ppm): 86%

Structure (SMILES): C[Si](C)(C)CCNC(=O)c1coc(Cc2ccc(-c3noc(C(F)(F)F)n3)cc2)n1 [compound 206]
- Test A disease control rating [1, 3]: 98%
- Test C disease control rating ([2]; test suspension 10 ppm): 68%

Structure (SMILES): O=C(c1csc(Cc2ccc(-c3noc(C(F)(F)F)n3)cc2)n1)N1CCC(F)(F)C1 [compound 207]
- Test A disease control rating [1, 3]: 100%
- Test C disease control rating ([2]; test suspension 10 ppm): 86%

Structure (SMILES): O=C(NCC=C(Cl)Cl)c1csc(Cc2ccc(-c3noc(C(F)(F)F)n3)cc2)n1 [compound 208]
- Test A disease control rating [1, 3]: 100%
- Test C disease control rating ([2]; test suspension 10 ppm): 86%

Structure (SMILES): CC(COC(=O)c1cnn(Cc2ccc(-c3noc(C(F)(F)F)n3)cc2)c1)=NOC1CCCCO1 (stereo not shown) [compound 218]
- Test A disease control rating [1, 3]: 100%
- Test C disease control rating ([2]; test suspension 10 ppm): 98%

Structure (SMILES): CCCCON=C(C)COC(=O)c1cnn(Cc2ccc(-c3noc(C(F)(F)F)n3)cc2)c1 [compound 219]
- Test A disease control rating [1, 3]: 100%
- Test C disease control rating ([2]; test suspension 10 ppm): 86%

Structure (SMILES): CC(COC(=O)c1cnn(Cc2ccc(-c3noc(C(F)(F)F)n3)cc2)c1)=NOC(C)(C)C [compound 220]
- Test A disease control rating [1, 3]: 100%
- Test C disease control rating ([2]; test suspension 10 ppm): 86%

Structure (SMILES): CCON=C(C)COC(=O)c1cnn(Cc2ccc(-c3noc(C(F)(F)F)n3)cc2)c1 [compound 221]
- Test A disease control rating [1, 3]: 100%
- Test C disease control rating ([2]; test suspension 10 ppm): 95%

Structure (SMILES): CC(COC(=O)c1cnn(Cc2ccc(-c3noc(C(F)(F)F)n3)cc2)c1)=NOC(C)C [compound 222]
- Test A disease control rating [1, 3]: 100%
- Test C disease control rating ([2]; test suspension 10 ppm): 97%

Structure (SMILES): CC(COC(=O)c1cnn(Cc2ccc(-c3noc(C(F)(F)F)n3)cc2)c1)=NO [compound 223]
- Test A disease control rating [1, 3]: 100%
- Test C disease control rating ([2]; test suspension 10 ppm): 91%

Structure (SMILES): CCOC(=O)c1cnn(CSCc2ccc(-c3noc(C(F)(F)F)n3)cc2)c1 [compound 241]
- Test A disease control rating [1, 3]: 100%
- Test C disease control rating ([2]; test suspension 10 ppm): 100%

Structure (SMILES): CCOC(=O)c1cnn(C[S+]([O-])Cc2ccc(-c3noc(C(F)(F)F)n3)cc2)c1 (stereo not shown) [compound 242]
- Test A disease control rating [1, 3]: 100%
- Test C disease control rating ([2]; test suspension 10 ppm): 99%

Structure (SMILES): CCOC(=O)c1cnn(CS(=O)(=O)Cc2ccc(-c3noc(C(F)(F)F)n3)cc2)c1 [compound 243]
- Test A disease control rating [1, 3]: 98%
- Test C disease control rating ([2]; test suspension 10 ppm): 85%

Structure (SMILES): O=C(COC(=O)c1cnn(Cc2ccc(-c3noc(C(F)(F)F)n3)cc2)c1)c1ccccc1 [compound 244]
- Test A disease control rating [1, 3]: 100%
- Test C disease control rating ([2]; test suspension 10 ppm): 95%
